Laboratory results taken from patent US12625150B2, “Treatment of, and differential diagnosis between, ACTH-dependent Cushing's syndrome and ACTH-independent Cushing's syndrome” (Corcept Therapeutics Incorporated, priority 2019, dated 2026).
“And” between values parts separate entries of the source, which are not always exact repeats. Equal entries are not always repeated.

Experiments:
[1] = test system: serum ACTH and cortisol levels; test: Serum ACTH and cortisol levels and ACTH:cortisol ratio in Cushing's syndrome patients administered mifepristone; format: in vivo, human
[2] = test system: serum ACTH and cortisol levels; test: Serum ACTH and cortisol levels and ACTH:cortisol ratio in Cushing's syndrome patients administered relacorilant; format: in vivo, human; conditions: for change in ACTH:cortisol ratio following treatment: relacorilant 100-400 mg/day, six weeks
Procedure: Cushing's syndrome (CS) patients were examined and serum levels of ACTH and cortisol were measured in blood samples obtained from the patients. The serum ACTH and cortisol levels determined prior to administration of glucocorticoid receptor antagonist (GRA) therapy were used to calculate baseline ACTH:cortisol ratios (basal ACTH:cortisol ratios). […] The patients then received oral glucocorticoid receptor antagonist (GRA) therapy (either mifepristone or relacorilant, typically daily) for at least six weeks. The serum ACTH and cortisol levels determined after these six weeks of GRA therapy were used to calculate after-GRA ACTH:cortisol ratios. Three patients were treated with relacorilant (100 milligrams (mg) per day, titrated up to 400 mg per day, as tolerated; see Table 1). […] The results of these clinical measurements in Cushing's syndrome patients administered relacorilant (100 milligrams (mg) per day, titrated up to 400 mg per day, as tolerated) are presented in the Table 1: […]

Row | SMILES | Basal ACTH ([1]; individual patients with confirmed pituitary CS (ACTH dependent), serum, prior to mifepristone) | Day 14 Serum Cortisol ([1]; individual patients with confirmed pituitary CS, day 14 of oral mifepristone 300 mg/day titrated up to 900 mg/day) | Basal Serum Cortisol ([1]; individual patients with confirmed pituitary CS, prior to mifepristone) | Day 14 ACTH ([1]; individual patients with confirmed pituitary CS, serum, day 14 of oral mifepristone 300 mg/day titrated up to 900 mg/day) | Week 6 Basal ACTH ([1]; individual patients with confirmed pituitary CS, serum, week 6 of oral mifepristone 300 mg/day titrated up to 900 mg/day) | Week 6 Serum Cortisol ([1]; individual patients with confirmed pituitary CS, week 6 of oral mifepristone 300 mg/day titrated up to 900 mg/day) | change in ACTH:cortisol ratio following treatment ([2]; CS patient with pituitary tumor (ACTH-dependent Cushing's syndrome)) | Week 6 Serum Cortisol ([2]; adrenal CS patients (ACTH-independent), after six weeks of oral relacorilant 100 mg/day titrated up to 400 mg/day) | Baseline Serum Cortisol ([2]; adrenal CS patients (ACTH-independent), prior to relacorilant) | Week 6 Serum Cortisol ([2]; pituitary CS patient (ACTH-dependent), after six weeks of oral relacorilant 100 mg/day titrated up to 400 mg/day) | Baseline Serum Cortisol ([2]; pituitary CS patient (ACTH-dependent), prior to relacorilant) | Week 6 ACTH ([2]; pituitary CS patient (ACTH-dependent), serum, after six weeks of oral relacorilant 100 mg/day titrated up to 400 mg/day) | Baseline ACTH ([2]; pituitary CS patient (ACTH-dependent), serum, prior to relacorilant) | Post-Treatment Ratio (ACTH:cortisol) ([2]; pituitary CS patient, ACTH in pg/ml divided by cortisol in μg/dL, after six weeks of oral relacorilant 100-400 mg/day) | Baseline Ratio (ACTH:cortisol) ([2]; pituitary CS patient, ACTH in pg/ml divided by cortisol in μg/dL, prior to relacorilant) | change in ACTH:cortisol ratio following treatment ([2]; two CS patients with adrenal tumors (ACTH-independent Cushing's syndrome))
1 | CC#C[C@]1(O)CC[C@H]2[C@@H]3CCC4=CC(=O)CCC4=C3[C@@H](c3ccc(N(C)C)cc3)C[C@@]21C [mifepristone, 11β-(4-dimethylaminophenyl)-17β-hydroxy-17α-(1-propynyl)-estra-4,9-dien-3-one] | 16 pg/mL and 21 pg/mL and 20 pg/mL and 7 pg/mL and 15 pg/mL and 8 pg/mL | 486 nmol/L and 955 nmol/L and 914 nmol/L and 900 nmol/L and 809 nmol/L and 613 nmol/L | 337 nmol/L and 632 nmol/L and 734 nmol/L and 317 nmol/L and 494 nmol/L and 502 nmol/L | 34 pg/ml (2×) and 53 pg/ml and 21 pg/ml and 30 pg/ml and 22 pg/ml | 57 pg/mL and 52 pg/mL and 65 pg/mL and 24 pg/mL and 49 pg/mL and 20 pg/mL | 679 nmol/L and 999 nmol/L and 1151 nmol/L and 955 nmol/L and 731 nmol/L and 654 nmol/L | – | – | – | – | – | – | – | – | – | –
2 | Cn1cc(S(=O)(=O)N2CCC3=Cc4c(cnn4-c4ccc(F)cc4)C[C@]3(C(=O)c3cc(C(F)(F)F)ccn3)C2)cn1 [relacorilant, (R)-(1-(4-fluorophenyl)-6-((1-methyl-1H-pyrazol-4-yl)sulfonyl)-4,4a,5,6,7,8-hexahydro-1H-pyrazolo[3,4-g]isoquinolin-4a-yl)(4-(trifluoromethyl)pyridin-2-yl)methanone] | – | – | – | – | – | – | increased | 14.9 µg/dL and 17.1 µg/dL | 13.6 µg/dL and 16.2 µg/dL | 28.7 µg/dL | 20.7 µg/dL | 39.8 pg/mL | 23.9 pg/mL | 1.39 | 1.15 | decreased
